The NIST ThermoML archive (doi:10.1016/j.jct.2015.12.017)
Values joined by “and” are separate entries in the source; they are usually repeats but may differ in a detail not shown here. Equal values may be shown once. ± gives the expanded uncertainty stated by the source.

Test: molar heat capacity at constant pressure
Conditions: 101.33 kPa, Small sample (50 mg) DSC

O=P([O-])([O-])[O-].[Co+2].[Cs+] [cesium cobalt(II) phosphate]
Conditions | molar heat capacity at constant pressure
451.9 K, Crystal 3 | 167.95 ± 5 J/K/mol
454.4 K, Crystal 3 | 167.95 ± 5 J/K/mol
456.9 K, Crystal 3 | 168.78 ± 5 J/K/mol
459.4 K, Crystal 3 | 169.62 ± 5 J/K/mol
460 K, Crystal 3 | 169.45 ± 4.9 J/K/mol
461.9 K, Crystal 3 | 170.45 ± 5 J/K/mol
464.4 K, Crystal 3 | 170.45 ± 5 J/K/mol
466.9 K, Crystal 3 | 171.28 ± 5 J/K/mol
469.4 K, Crystal 3 | 172.11 ± 5 J/K/mol
470 K, Crystal 3 | 172.44 ± 5 J/K/mol
471.9 K, Crystal 3 | 172.94 ± 5 J/K/mol
474.4 K, Crystal 3 | 173.77 ± 5 J/K/mol
476.9 K, Crystal 3 | 174.6 ± 5 J/K/mol
479.4 K, Crystal 3 | 176.27 ± 5 J/K/mol
480 K, Crystal 3 | 175.02 ± 5 J/K/mol
481.9 K, Crystal 3 | 182.92 ± 5.8 J/K/mol
484.4 K, Crystal 3 | 205.37 ± 7.5 J/K/mol
486.9 K, Crystal 2 | 241.12 ± 9.1 J/K/mol and 177.1 ± 5.1 J/K/mol
486.9 K, Crystal 3 | 177.1 ± 5.1 J/K/mol and 241.12 ± 9.1 J/K/mol
489.8 K, Crystal 2 | 196.22 ± 7.5 J/K/mol
490 K, Crystal 2 | 176.68 ± 5.1 J/K/mol
491.9 K, Crystal 2 | 182.09 ± 5.8 J/K/mol
494.4 K, Crystal 2 | 177.93 ± 5 J/K/mol
496.9 K, Crystal 2 | 177.1 ± 5 J/K/mol
499.4 K, Crystal 2 | 177.93 ± 5 J/K/mol
500 K, Crystal 2 | 177.51 ± 5.1 J/K/mol
501.9 K, Crystal 2 | 178.76 ± 5 J/K/mol
504.4 K, Crystal 2 | 181.26 ± 5 J/K/mol
506.9 K, Crystal 2 | 185.41 ± 5.8 J/K/mol
509.4 K, Crystal 2 | 192.06 ± 5.8 J/K/mol
510 K, Crystal 2 | 177.51 ± 5.1 J/K/mol
511.6 K, Crystal 2 | 215.34 ± 8.3 J/K/mol
514.4 K, Crystal 1 | 253.59 ± 11 J/K/mol and 177.02 ± 5.1 J/K/mol
514.4 K, Crystal 2 | 253.59 ± 9.1 J/K/mol and 177.76 ± 5.1 J/K/mol
517.3 K, Crystal 1 | 198.72 ± 8.3 J/K/mol
518.6 K, Crystal 1 | 188.74 ± 5.8 J/K/mol
520 K, Crystal 1 | 177.02 ± 5.1 J/K/mol
520.2 K, Crystal 1 | 184.58 ± 5 J/K/mol
523.1 K, Crystal 1 | 181.26 ± 5 J/K/mol
526.9 K, Crystal 1 | 178.76 ± 5 J/K/mol
529.4 K, Crystal 1 | 177.93 ± 5 J/K/mol
530 K, Crystal 1 | 177.02 ± 5.1 J/K/mol
531.9 K, Crystal 1 | 177.1 ± 5 J/K/mol
534.4 K, Crystal 1 | 177.1 ± 5 J/K/mol
536.9 K, Crystal 1 | 177.1 ± 5 J/K/mol
539.4 K, Crystal 1 | 177.1 ± 5 J/K/mol
540 K, Crystal 1 | 177.02 ± 5.1 J/K/mol
541.9 K, Crystal 1 | 177.1 ± 5 J/K/mol
544.4 K, Crystal 1 | 177.1 ± 5 J/K/mol
546.9 K, Crystal 1 | 177.1 ± 5 J/K/mol
549.4 K, Crystal 1 | 177.1 ± 5 J/K/mol
550 K, Crystal 1 | 177.02 ± 5.1 J/K/mol
551.9 K, Crystal 1 | 177.1 ± 5 J/K/mol
554.4 K, Crystal 1 | 177.1 ± 5 J/K/mol
556.9 K, Crystal 1 | 177.1 ± 5 J/K/mol
559.4 K, Crystal 1 | 177.1 ± 5 J/K/mol
560 K, Crystal 1 | 177.02 ± 5.1 J/K/mol
561.9 K, Crystal 1 | 177.1 ± 5 J/K/mol
564.4 K, Crystal 1 | 177.1 ± 5 J/K/mol
566.9 K, Crystal 1 | 177.1 ± 5 J/K/mol
569.4 K, Crystal 1 | 177.1 ± 5 J/K/mol
570 K, Crystal 1 | 177.02 ± 5.1 J/K/mol
571.9 K, Crystal 1 | 177.1 ± 5 J/K/mol
574.4 K, Crystal 1 | 177.1 ± 5 J/K/mol
576.9 K, Crystal 1 | 177.1 ± 5 J/K/mol
579.4 K, Crystal 1 | 177.1 ± 5 J/K/mol
580 K, Crystal 1 | 177.02 ± 5.1 J/K/mol
581.9 K, Crystal 1 | 177.1 ± 5 J/K/mol
584.4 K, Crystal 1 | 177.1 ± 5 J/K/mol
586.9 K, Crystal 1 | 177.1 ± 5 J/K/mol
589.4 K, Crystal 1 | 177.1 ± 5 J/K/mol
590 K, Crystal 1 | 177.02 ± 5.1 J/K/mol
591.9 K, Crystal 1 | 177.1 ± 5 J/K/mol
594.4 K, Crystal 1 | 177.1 ± 5 J/K/mol
596.9 K, Crystal 1 | 177.1 ± 5 J/K/mol
599.4 K, Crystal 1 | 177.1 ± 5 J/K/mol
600 K, Crystal 1 | 177.02 ± 5.1 J/K/mol
601.9 K, Crystal 1 | 177.1 ± 5 J/K/mol
604.4 K, Crystal 1 | 177.1 ± 5 J/K/mol
606.9 K, Crystal 1 | 177.1 ± 5 J/K/mol
609.4 K, Crystal 1 | 177.1 ± 5 J/K/mol
610 K, Crystal 1 | 177.02 ± 5.1 J/K/mol
611.9 K, Crystal 1 | 177.93 ± 5 J/K/mol
614.4 K, Crystal 1 | 177.93 ± 5 J/K/mol
616.9 K, Crystal 1 | 177.93 ± 5 J/K/mol
619.4 K, Crystal 1 | 177.93 ± 5 J/K/mol
620 K, Crystal 1 | 177.02 ± 5.1 J/K/mol
621.9 K, Crystal 1 | 177.93 ± 5 J/K/mol
624.4 K, Crystal 1 | 177.93 ± 5 J/K/mol
626.9 K, Crystal 1 | 177.93 ± 5 J/K/mol
629.4 K, Crystal 1 | 177.93 ± 5 J/K/mol
630 K, Crystal 1 | 177.02 ± 5.1 J/K/mol
631.9 K, Crystal 1 | 177.93 ± 5 J/K/mol
634.4 K, Crystal 1 | 177.93 ± 5 J/K/mol
636.9 K, Crystal 1 | 177.93 ± 5 J/K/mol
639.4 K, Crystal 1 | 177.93 ± 5 J/K/mol
640 K, Crystal 1 | 177.02 ± 5.1 J/K/mol
641.9 K, Crystal 1 | 177.93 ± 5 J/K/mol
644.4 K, Crystal 1 | 177.93 ± 5 J/K/mol
646.9 K, Crystal 1 | 177.93 ± 5 J/K/mol
649.4 K, Crystal 1 | 177.93 ± 5 J/K/mol
650 K, Crystal 1 | 177.02 ± 5.1 J/K/mol
